In ChEMBL document CHEMBL5678816, “A Next-Generation TRK Kinase Inhibitor Overcomes Acquired Resistance to Prior TRK Kinase Inhibition in Patients with TRK Fusion-Positive Solid Tumors” (Cancer Discov, 2017):
Activity calls are given as the source filed them. No cut-off for these calls is given here.

Tests used:
HMCB cell line = assay: Inhibition of cell proliferation in human HMCB cells upto 10 umol/L incubated for 72 hrs by DAPI staining based analysis; format: functional; settings: dose <= 10.0 µmol/L
[1] = target: SRSF protein kinase 2 (Homo sapiens) (UniProt P78362); assay: Inhibition of SRPK2 (unknown origin) at 1 uM in presence of ATP relative to control; values are per cent of control
Sequence of SRSF protein kinase 2 (Homo sapiens) (P78362 whole entry, looked up): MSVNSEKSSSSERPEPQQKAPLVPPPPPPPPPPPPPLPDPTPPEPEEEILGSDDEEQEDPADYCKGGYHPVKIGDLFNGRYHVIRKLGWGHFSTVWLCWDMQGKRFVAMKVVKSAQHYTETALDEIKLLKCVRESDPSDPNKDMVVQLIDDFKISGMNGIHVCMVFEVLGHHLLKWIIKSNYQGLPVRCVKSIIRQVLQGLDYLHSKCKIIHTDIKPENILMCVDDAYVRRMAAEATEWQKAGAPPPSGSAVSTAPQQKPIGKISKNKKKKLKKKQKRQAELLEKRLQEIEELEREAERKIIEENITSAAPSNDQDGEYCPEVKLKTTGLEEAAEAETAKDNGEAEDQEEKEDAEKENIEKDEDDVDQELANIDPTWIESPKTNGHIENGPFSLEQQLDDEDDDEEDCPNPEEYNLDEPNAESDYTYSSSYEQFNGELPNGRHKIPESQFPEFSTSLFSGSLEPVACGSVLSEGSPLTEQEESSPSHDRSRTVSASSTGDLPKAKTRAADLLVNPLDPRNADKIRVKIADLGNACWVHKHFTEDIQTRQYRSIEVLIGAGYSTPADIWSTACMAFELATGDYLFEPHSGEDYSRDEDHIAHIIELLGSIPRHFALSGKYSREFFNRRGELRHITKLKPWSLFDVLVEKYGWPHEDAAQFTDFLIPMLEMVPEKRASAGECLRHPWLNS

DMS-53 = assay: Inhibition of cell proliferation in human DMS-53 cells upto 10 umol/L incubated for 72 hrs by DAPI staining based analysis; format: functional; settings: dose <= 10.0 µmol/L
SCC-25 = assay: Inhibition of cell proliferation in human SCC-25 cells upto 10 umol/L incubated for 72 hrs by DAPI staining based analysis; format: functional; settings: dose <= 10.0 µmol/L
TT = assay: Inhibition of cell proliferation in human TT cells upto 10 umol/L incubated for 72 hrs by DAPI staining based analysis; format: functional; settings: dose <= 10.0 µmol/L
[2] = target: cAMP-dependent protein kinase catalytic subunit PRKX (Homo sapiens) (UniProt P51817); assay: Inhibition of PrKX (unknown origin) at 1 uM in presence of ATP relative to control; values are per cent of control
Sequence of cAMP-dependent protein kinase catalytic subunit PRKX (Homo sapiens) (P51817 whole entry): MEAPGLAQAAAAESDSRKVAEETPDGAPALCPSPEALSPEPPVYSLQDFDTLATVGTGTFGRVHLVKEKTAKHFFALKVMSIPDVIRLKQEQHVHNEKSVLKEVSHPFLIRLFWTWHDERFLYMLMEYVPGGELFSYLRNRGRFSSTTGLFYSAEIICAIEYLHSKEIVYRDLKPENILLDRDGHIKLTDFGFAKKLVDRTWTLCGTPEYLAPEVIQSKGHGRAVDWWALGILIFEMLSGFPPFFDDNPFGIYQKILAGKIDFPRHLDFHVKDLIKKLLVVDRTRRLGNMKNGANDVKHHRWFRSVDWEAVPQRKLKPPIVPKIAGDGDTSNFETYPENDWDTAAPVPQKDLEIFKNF

[3] = target: RAF proto-oncogene serine/threonine-protein kinase (Homo sapiens) (UniProt P04049); assay: Inhibition of C-RAF (unknown origin) at 1 uM in presence of ATP relative to control; values are per cent of control
Sequence of RAF proto-oncogene serine/threonine-protein kinase (Homo sapiens) (P04049 whole entry): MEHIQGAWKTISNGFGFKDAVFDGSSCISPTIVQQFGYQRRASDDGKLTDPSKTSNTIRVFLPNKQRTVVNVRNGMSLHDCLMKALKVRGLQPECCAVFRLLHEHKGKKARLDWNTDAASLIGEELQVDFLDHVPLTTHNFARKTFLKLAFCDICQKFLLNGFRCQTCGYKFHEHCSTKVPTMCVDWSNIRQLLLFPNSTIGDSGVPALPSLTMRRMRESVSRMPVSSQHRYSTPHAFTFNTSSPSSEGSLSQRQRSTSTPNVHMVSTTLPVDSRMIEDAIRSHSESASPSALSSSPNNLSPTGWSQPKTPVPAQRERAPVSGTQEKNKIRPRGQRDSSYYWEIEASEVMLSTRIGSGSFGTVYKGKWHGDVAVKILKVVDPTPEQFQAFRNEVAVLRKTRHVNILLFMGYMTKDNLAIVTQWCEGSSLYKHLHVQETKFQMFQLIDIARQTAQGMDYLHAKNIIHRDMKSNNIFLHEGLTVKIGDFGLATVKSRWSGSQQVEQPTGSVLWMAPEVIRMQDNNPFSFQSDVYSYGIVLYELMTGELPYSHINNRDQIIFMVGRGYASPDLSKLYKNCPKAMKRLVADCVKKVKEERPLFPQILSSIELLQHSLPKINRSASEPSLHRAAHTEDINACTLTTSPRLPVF

[4] = target: Death-associated protein kinase 1 (Homo sapiens) (UniProt P53355); assay: Inhibition of DAPK1 (unknown origin) at 1 uM in presence of ATP relative to control; values are per cent of control
[5] = target: Tyrosine-protein kinase FRK (Homo sapiens) (UniProt P42685); assay: Inhibition of PTK5 (unknown origin) at 1 uM in presence of ATP relative to control; values are per cent of control
RT112/84 = assay: Inhibition of cell proliferation in human RT112/84 cells upto 10 umol/L incubated for 72 hrs by DAPI staining based analysis; format: functional; settings: dose <= 10.0 µmol/L
[6] = target: Serine/threonine-protein kinase pim-3 (Homo sapiens) (UniProt Q86V86); assay: Inhibition of Pim-3 (unknown origin) at 1 uM in presence of ATP relative to control; values are per cent of control
[7] = target: Interleukin-1 receptor-associated kinase 1 (Homo sapiens) (UniProt P51617); assay: Inhibition of IRAK1 (unknown origin) at 1 uM in presence of ATP relative to control; values are per cent of control
Sequence of Interleukin-1 receptor-associated kinase 1 (Homo sapiens) (P51617 whole entry, looked up): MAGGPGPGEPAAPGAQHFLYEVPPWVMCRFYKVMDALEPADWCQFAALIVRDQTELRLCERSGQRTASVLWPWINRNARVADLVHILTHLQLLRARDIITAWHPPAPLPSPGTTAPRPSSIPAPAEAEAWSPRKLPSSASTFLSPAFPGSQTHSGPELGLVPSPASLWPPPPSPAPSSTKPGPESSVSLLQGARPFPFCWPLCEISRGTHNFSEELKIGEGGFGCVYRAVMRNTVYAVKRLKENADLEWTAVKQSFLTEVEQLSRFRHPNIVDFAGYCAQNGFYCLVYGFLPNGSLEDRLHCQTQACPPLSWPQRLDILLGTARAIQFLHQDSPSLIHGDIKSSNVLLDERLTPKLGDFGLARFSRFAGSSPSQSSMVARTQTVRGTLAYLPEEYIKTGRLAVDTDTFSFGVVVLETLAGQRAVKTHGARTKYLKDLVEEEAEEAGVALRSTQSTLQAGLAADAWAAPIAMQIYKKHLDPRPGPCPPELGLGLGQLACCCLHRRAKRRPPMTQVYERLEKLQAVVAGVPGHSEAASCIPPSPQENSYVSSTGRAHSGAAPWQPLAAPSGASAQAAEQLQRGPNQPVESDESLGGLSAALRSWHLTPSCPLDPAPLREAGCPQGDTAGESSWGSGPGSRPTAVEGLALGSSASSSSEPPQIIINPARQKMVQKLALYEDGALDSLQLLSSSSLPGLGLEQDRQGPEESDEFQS

[8] = target: Tyrosine-protein kinase Fes/Fps (Homo sapiens) (UniProt P07332); assay: Inhibition of Fes (unknown origin) at 1 uM in presence of ATP relative to control; values are per cent of control
Sequence of Tyrosine-protein kinase Fes/Fps (Homo sapiens) (P07332 whole entry): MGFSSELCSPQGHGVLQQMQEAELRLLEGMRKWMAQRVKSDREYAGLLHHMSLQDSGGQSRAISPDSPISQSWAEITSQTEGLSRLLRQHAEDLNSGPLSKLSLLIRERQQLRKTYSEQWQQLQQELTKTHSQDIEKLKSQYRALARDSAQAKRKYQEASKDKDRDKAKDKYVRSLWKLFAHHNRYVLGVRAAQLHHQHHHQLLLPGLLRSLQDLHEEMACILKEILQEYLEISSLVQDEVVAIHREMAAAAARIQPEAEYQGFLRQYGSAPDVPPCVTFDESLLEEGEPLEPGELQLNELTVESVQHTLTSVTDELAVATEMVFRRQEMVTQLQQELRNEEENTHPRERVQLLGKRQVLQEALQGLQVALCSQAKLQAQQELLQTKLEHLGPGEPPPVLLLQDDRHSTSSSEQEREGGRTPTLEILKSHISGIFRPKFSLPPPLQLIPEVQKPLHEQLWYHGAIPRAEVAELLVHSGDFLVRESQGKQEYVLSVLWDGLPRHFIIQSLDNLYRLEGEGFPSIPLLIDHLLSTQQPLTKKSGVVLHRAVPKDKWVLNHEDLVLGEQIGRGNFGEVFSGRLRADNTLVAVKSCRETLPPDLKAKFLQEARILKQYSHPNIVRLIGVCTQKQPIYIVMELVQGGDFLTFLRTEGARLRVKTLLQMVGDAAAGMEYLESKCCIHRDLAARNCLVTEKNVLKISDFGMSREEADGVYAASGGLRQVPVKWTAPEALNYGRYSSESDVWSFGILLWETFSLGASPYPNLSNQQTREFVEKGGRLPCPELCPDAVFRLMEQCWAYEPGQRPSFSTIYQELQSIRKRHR

[9] = target: Death-associated protein kinase 2 (Homo sapiens) (UniProt Q9UIK4); assay: Inhibition of DAPK2 (unknown origin) at 1 uM in presence of ATP relative to control; values are per cent of control
DMS-114 = assay: Inhibition of cell proliferation in human DMS-114 cells upto 10 umol/L incubated for 72 hrs by DAPI staining based analysis; format: functional; settings: dose <= 10.0 µmol/L
[10] = target: Activin receptor type-1B (Homo sapiens) (UniProt P36896); assay: Inhibition of ALK4 (unknown origin) at 1 uM in presence of ATP relative to control; values are per cent of control
[11] = target: Inhibitor of nuclear factor kappa-B kinase subunit alpha (Homo sapiens) (UniProt O15111); assay: Inhibition of IKKalpha (unknown origin) at 1 uM in presence of ATP relative to control; values are per cent of control
[12] = target: MAP kinase-activated protein kinase 3 (Homo sapiens) (UniProt Q16644); assay: Inhibition of MAPKAP-K3 (unknown origin) at 1 uM in presence of ATP relative to control; values are per cent of control
[13] = target: Tyrosine-protein kinase receptor UFO (Homo sapiens) (UniProt P30530); assay: Inhibition of Axl (unknown origin) at 1 uM in presence of ATP relative to control; values are per cent of control
L-428 = assay: Inhibition of cell proliferation in human L428 cells upto 10 umol/L incubated for 72 hrs by DAPI staining based analysis; format: functional; settings: dose <= 10.0 µmol/L
Homo sapiens = species: Homo sapiens; assay: Inhibition of PKCgamma (unknown origin) at 1 uM in presence of ATP relative to control; values are per cent of control
T-24 = assay: Inhibition of cell proliferation in human T24 cells upto 10 umol/L incubated for 72 hrs by DAPI staining based analysis; format: functional; settings: dose <= 10.0 µmol/L
[14] = target: Rhodopsin kinase GRK7 (Homo sapiens) (UniProt Q8WTQ7); assay: Inhibition of GRK7 (unknown origin) at 1 uM in presence of ATP relative to control; values are per cent of control
[15] = target: Tyrosine-protein kinase SYK (Homo sapiens) (UniProt P43405); assay: Inhibition of Syk (unknown origin) at 1 uM in presence of ATP relative to control; values are per cent of control
OE19 = assay: Inhibition of cell proliferation in human OE19 cells upto 10 umol/L incubated for 72 hrs by DAPI staining based analysis; format: functional; settings: dose <= 10.0 µmol/L
SK-N-DZ = assay: Inhibition of cell proliferation in human SK-N-DZ cells upto 10 umol/L incubated for 72 hrs by DAPI staining based analysis; format: functional; settings: dose <= 10.0 µmol/L
DK-MG = assay: Inhibition of cell proliferation in human DK-MG cells upto 10 umol/L incubated for 72 hrs by DAPI staining based analysis; format: functional; settings: dose <= 10.0 µmol/L
[16] = target: Tyrosine-protein kinase JAK2 (Homo sapiens) (UniProt O60674); assay: Inhibition of JAK2 (unknown origin) at 1 uM in presence of ATP relative to control; values are per cent of control
Sequence of Tyrosine-protein kinase JAK2 (Homo sapiens) (O60674 whole entry): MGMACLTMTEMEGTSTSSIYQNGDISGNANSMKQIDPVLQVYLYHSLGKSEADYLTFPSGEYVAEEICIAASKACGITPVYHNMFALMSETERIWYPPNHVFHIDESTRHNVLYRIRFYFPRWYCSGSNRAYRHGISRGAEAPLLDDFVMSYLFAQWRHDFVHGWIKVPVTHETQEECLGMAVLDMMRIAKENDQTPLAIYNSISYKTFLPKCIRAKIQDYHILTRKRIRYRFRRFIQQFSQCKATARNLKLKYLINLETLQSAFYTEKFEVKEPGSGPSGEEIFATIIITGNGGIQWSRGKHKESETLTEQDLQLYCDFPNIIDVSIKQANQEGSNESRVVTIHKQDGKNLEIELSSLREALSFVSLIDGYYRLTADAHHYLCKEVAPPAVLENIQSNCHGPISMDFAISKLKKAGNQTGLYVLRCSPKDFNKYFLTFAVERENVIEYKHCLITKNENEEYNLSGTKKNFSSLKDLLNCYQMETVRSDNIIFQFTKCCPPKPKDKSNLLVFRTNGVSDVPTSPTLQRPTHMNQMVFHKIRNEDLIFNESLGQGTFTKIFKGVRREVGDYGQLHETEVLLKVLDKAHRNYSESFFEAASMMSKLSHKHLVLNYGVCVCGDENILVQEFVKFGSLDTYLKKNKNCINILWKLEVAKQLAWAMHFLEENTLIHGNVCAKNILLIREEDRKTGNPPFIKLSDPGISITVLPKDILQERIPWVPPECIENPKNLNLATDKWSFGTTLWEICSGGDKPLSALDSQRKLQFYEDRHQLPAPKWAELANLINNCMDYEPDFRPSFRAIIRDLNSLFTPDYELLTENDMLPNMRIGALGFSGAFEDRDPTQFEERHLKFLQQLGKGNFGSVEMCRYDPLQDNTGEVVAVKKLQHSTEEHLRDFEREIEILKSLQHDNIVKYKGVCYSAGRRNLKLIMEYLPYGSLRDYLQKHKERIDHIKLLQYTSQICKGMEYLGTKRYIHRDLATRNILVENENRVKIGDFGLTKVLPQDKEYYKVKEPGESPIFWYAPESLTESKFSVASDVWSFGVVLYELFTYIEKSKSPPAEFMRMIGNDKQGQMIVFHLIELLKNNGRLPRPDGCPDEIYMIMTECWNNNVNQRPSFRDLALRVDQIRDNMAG

[17] = Cmax in adult patient with recurrent LMNA-NTRK1 rearranged colorectal cancer at 50 mg administered twice a day as powder-in-capsule or liquid formulation for 1 day by LC-MS/MS analysis; format: ADME; settings: human, in vivo, po
[18] = target: Protein-tyrosine kinase 6 (Homo sapiens) (UniProt Q13882); assay: Inhibition of PTK6 (unknown origin) at 1 uM in presence of ATP relative to control; values are per cent of control
KG-1 = assay: Inhibition of cell proliferation in human KG-1 cells upto 10 umol/L incubated for 72 hrs by DAPI staining based analysis; format: functional; settings: dose <= 10.0 µmol/L

With C[C@@H]1CCc2ncc(F)cc2[C@H]2CCCN2c2ccn3ncc(c3n2)C(=O)N1 [SELITRECTINIB] the inhibition (HMCB cell line) was “inactive”, the residual activity [1] was 93.5% and the inhibition (DMS-53) was “inactive”. The inhibition (SCC-25) was “inactive”, the inhibition (TT) was “inactive” and the residual activity [2] was 118%. The residual activity [3] was 92.5%, the residual activity [4] was 120% and the residual activity [5] was 87.5%. The inhibition (RT112/84) was “inactive”, the residual activity [6] was 103% and the residual activity [7] was 106%. For the same compound, the residual activity [8] was 99.5%, the residual activity [9] was 94% and the inhibition (DMS-114) was “inactive”. It also gave a residual activity [10] of 96%, a residual activity [11] of 96.5% and a residual activity [12] of 102%. The residual activity [13] was 90%, the inhibition (L-428) was “inactive” and the residual activity (Homo sapiens) was 97.5%. For the same compound, the inhibition (T-24) was “inactive”, the residual activity [14] was 70.5% and the residual activity [15] was 114%. For the same compound, the inhibition (OE19) was “inactive”, the inhibition (SK-N-DZ) was “inactive” and the inhibition (DK-MG) was “inactive”. For the same compound, the residual activity [16] was 37.5%, the Cmax [17] was 350 ng/mL and the residual activity [18] was 98.5%. For the same compound, the inhibition (KG-1) was “inactive”.
